This is an account of results in patent US20150336993A1, “MITOCHONDRIA-TARGETED THERANOSTIC AGENTS” (The Board of Trustees of the Leland Stanford Junior …, priority 2014, published 2015).

Read-outs that look alike come from different tables or passages of the source.

Test [1] relates to U87MG cells. Briefly: Cell proliferation assay in U87MG cells (direct cell counting). Format: cell-based, human. The conditions noted are these: for IC50: 3000 cells/well, incubated 4 days, viable cells directly counted, read-out: IC50 (half inhibitory concentration) against U87MG. The method, then: Apart from the imaging studies, we then investigated anti-tumor activities of all F16 related compounds by studying their antiproliferative effects in U87MG and MDA-MB-231 cell lines. After exposure to 5 or 10 μM of the compounds in the cancer cells for 4 days, the cell proliferative ratios to the control were measured (see FIG. 5). […] The different antiproliferative activities imply that the antitumor potency of the F16 related compounds is cell-dependent. Meanwhile, substituents in F16 and F16-TPP analogues played distinct roles, for instance, introduction of a fluorine atom in F16 barely influences activity of FF16 (P>0.05), while substitution of fluorine and methyl groups apparently impacts F16-TPP analogues in the U87MG cell line at a higher concentration of 10 μM.
(§1) To further confirm the relationship between cell uptake and antitumor activity, the half inhibitory concentrations (IC50) of these compounds against the U87MG cell line were measured. […] It should be noted that all these five compounds show minimum or even un-observable toxicity in the fibroblast cell line NIH 3T3 (IC50 all >100 μM, Table 1, FIG. 6), highlighting the treatment specificity of these mitochondrial targeted agents.
(§2) Both U87MG and NIH 3T3 cell lines at a density of 3000 cells/well were incubated in 96-well plates overnight. The culture medium was replaced with 200 μL of culture medium in which the testing compound dispersed at various concentrations (0.5-200 μM). After incubation for 4 days, the viable cell numbers were checked and directly counted under microscopy (10×). A minimum of 1 mm×1 mm area was counted from each of at least three widely separated regions of cell culture. The cell proliferation rate was calculated by the following formula: cell proliferation rate (%)=(average cell number of sample wells/average cell number of control wells×100. The intact culture medium was evaluated as a control.

The test system of another test is NIH 3T3 cells. Briefly: Cell proliferation assay in NIH 3T3 cells (direct cell counting). Format: cell-based, mouse. The settings on record: NIH 3T3 fibroblasts, 3000 cells/well, incubated 4 days, viable cells directly counted, read-out: IC50 (half inhibitory concentration) against NIH 3T3. The method, then: as §1, §2
Test [2] concerns U87MG cells. Briefly: Cell uptake and localization by fluorescence microscopy in U87MG cells. Type of test: cell-based, human. The conditions noted are these: 1 hour incubation, fluorescence signal in cells/PBS buffer, n=9. The method, then: The data was obtained by calculating by the following equation: Fluorescence signal in cell lines/Fluorescence signal in PBS buffer and normalized to F16 in the U87MG cell line. n=9. Data are presented as mean±SD.
Tumor cell uptake of all F16 related compounds were studied by incubating two cancer cell lines (U87MG and MDA-MB-231) with the probes for 1 hour and then imaging was performed with a fluorescent microscope. Meanwhile, to investigate the localization of the F16 derivatives, after incubation with the probes, cells were co-stained with the commercially available dye Mitotrack, which is widely used for mitochondria staining. […] Under eGFP filter set (ξex 450/490 nm, λem 515/565 nm), no significant autofluorescence of the cells were observed, making it convenient to study the relative uptake of the probes directly by comparing their fluorescence signals.
We then investigated the uptake of all the probes in U87MG and MDA-MB-231 cells at 1 hour incubation by quantitative analysis of fluorescent signals intensity of all F16 related compounds in the cells. The cellular uptake experiments were repeated nine times, and the relative cellular uptakes ability of different probes were calculated by comparing their percentage of cellular fluorescent signals and then normalized by that of F16 (FIG. 4). […]

As for `C[n+]1ccc(/C=C/c2c[nH]c3ccc(F)cc23)cc1.[I-]` [FF16, (E)-4-(1H-5-fluro-indole-3-ylvinyl)-N-methylpyridinium iodide], the IC50 in the test with U87MG cells [1] was 28 ± 1.2 µM; with NIH 3T3 cells it was approximately 491 µM. The “Improvement of bioactivity relative to F16 (U87MG IC50)” value in the test on U87MG cells [1] (fluorine substitution in F16) is listed as approximately 1.3 fold. Moreover, in the test on U87MG cells [2], the “Relative uptake in U87MG cells, normalized to F16” value was approximately 1.
In the case of `C[n+]1ccc(/C=C/c2c[nH]c3ccccc23)cc1.[I-]` [F16, (E)-4-(1H-indol-3-ylvinyl)-N-methylpyridinium iodide, reference compound], the IC50 was 36.5 ± 1.1 µM in the test with U87MG cells [1] (Homo sapiens, U-87 MG, 96 h) and approximately 100 µM with NIH 3T3 cells (Mus musculus, NIH3T3, 96 h). Moreover, the “Relative uptake in U87MG cells, normalized to F16” value in the test on U87MG cells [2] is given as approximately 1.
